The values below are quoted from earlier work in patent publication US20230310615A1, “OPHTHALMIC COMPOSITIONS” (Alcon Inc., priority 2022, published 2023).

For the data set the following is noted: dissociation constant of the dibasic compound.

As to `OCC(CO)(CO)NCCCNC(CO)(CO)CO` [bis-TRIS-propane, 1,3-bis(tris[hydroxymethyl]methylamino)propane], the pKa1 is reported as 6.8 and the pKa2 is 9.5.
